Results from patent US12054485B2, “Substituted imidazoquinolines” (BIONTECH SE, priority 2017, dated 2024).
Where two headings read alike, the source gives them in different places.

Experiments:
Assay type in all cases: cell-based
Human PBMCs = test: IFN-α induction by TLR agonists in human PBMCs (Luminex)
Protocol: 1) IFN-α Induction Assay—IFN-α induction by TLR Agonists in Human PBMCs
Abbreviations: BSA=bovine serum albumine; PBS=phosphate buffer pH 7.4; PE=phycoerythrin; EDC=1-ethyl-3-(3-dimethylaminopropyl)carbodiimide hydrochloride.
Materials and Devices: Bio Plex 200 Luminex device, and BioPlex Manager software; MultiScreen Filter Plates (Millipore, MABVN1250); low binding reaction vials 1.5 ml (Sarstedt, 72.706.600); Activation Buffer: 0.1M Na-dihydrogen phosphate, 0.1M Di-Na hydrogen phosphate pH 6.2; Sulfo-NHS (N-hydroxysulfosuccinimide) solution: 50 mg/ml in water (freshly prepared); EDC solution: 50 mg/ml in water (freshly prepared); Coupling Buffer: PBS; Washing Buffer: PBS+0.05% Tween20; Blocking Buffer: PBS+10 mg/ml BSA+0.05% sodium azide; Assay Buffer: PBS+10 mg/ml BSA;
Other materials and devices (pipets, reaction vessels, shaker, etc.) were standard lab equipment; water was MilliQ grade quality, buffers were sterile filtered before use.
(Pre-)Incubation of Cells:
In each well of a 96-well U-bottom plate 200,000 PBMCs were pre-incubated in medium (RPMI1640-Gibco #61870-044+10% FBS+1% L-glutamine) for 5 hours at 37° C. and 5% CO2 before the compounds of the present invention or controls were added, respectively. Upon addition of compounds of the present invention or controls, the cells are incubated for another 24 h at 37° C. and 5% CO2.
Luminex assay, Step 1: Coupling of antibody to beads: • transfer a suspension (beads are stored in buffer as provided by manufacturer) of about 5 million MicroPlex Microspheres (=beads) into a low binding reaction vial • centrifuge bead suspension for 1 min at 10,000 g, discard supernatant and resuspend pellet in 160 μl Activation Buffer, repeat once • add 20 μl Sulfo-NHS solution and 20 μl EDC solution, vortex • incubate for 20 min in the absence of light • centrifuge bead suspension for 1 min at 10,000 g, discard supernatant and resuspend pellet in 500 μl Coupling Buffer, repeat once • add capture antibody (CaptureAK eBioscience #BMS160, 5 μg per 1 Mio beads) • incubate 2 h at RT in the absence of light while swaying • centrifuge bead suspension for 1 min at 10,000 g, discard supernatant and resuspend pellet in 500 μl Washing Buffer, repeat once • centrifuge bead suspension for 1 min at I0,000 g, discard supernatant and resuspend pellet in 100 μl Blocking Buffer
Luminex assay, Step 2: Measurement • add 100 μlAssay Buffer into each filter plate well (seal any unused wells with adhesive tape), then remove buffer • add about 2,000 beads per well per analyte (per analyte, a different bead type with distinct fluorescence color is used), suspended in […] of Assay Buffer • remove buffer and wash twice with 100 μl Washing Buffer per well • per well, add 50 μl sample solution from the (pre-)incubation step (cell supernatant), or Standard (IFN-α standard eBioscience #BMS216MST—concentration gradient, highest standard concentration 2500 pg/ml) or Assay Buffer (as blanks) • shake plate • incubate plate for 2 h at RT in the absence of light, while swaying the plate • wash three times with 100 μl Washing Buffer per well • add 25 μl antibody detection mix (DetectionAK eBioscience #BMS1016BT diluted 1:1000) in Assay Buffer per well, then vortex plate • incubate plate for 1 h at RT in the absence of light, while swaying the plate • wash three times with 100 μl Washing Buffer per well • add 50 μl Streptavidin/PE (diluted 1:200 in Assay Buffer) per well, then vortex plate • incubate plate for 10 min at RT in the absence of light, while swaying the plate • wash three times with 100 μl Washing Buffer per well • add 100 μl Assay Buffer per well, then vortex plate • start Luminex measurement according to manufacturer's instructions, measuring at least 50 beads per well per analyte
The compounds were tested at 8 different concentrations (1 μM, 0.3 μM, 0.1 μM, 0.03 μM, 0.01 μM 0.003 μM, 0.001 μM, 0.0003 μM) using a half-logarithmic dilution. […]

human TLR8 = biological target: T1, human TLR8 (Homo sapiens, UniProt Q9NR97); test: TLR8 reporter gene assay (HEK-Blue-hTLR8, NFkB/AP-1 inducible SEAP)
T1 construct: host or cells: HEK-Blue-hTLR8
T1 sequence (Q9NR97 27-1041): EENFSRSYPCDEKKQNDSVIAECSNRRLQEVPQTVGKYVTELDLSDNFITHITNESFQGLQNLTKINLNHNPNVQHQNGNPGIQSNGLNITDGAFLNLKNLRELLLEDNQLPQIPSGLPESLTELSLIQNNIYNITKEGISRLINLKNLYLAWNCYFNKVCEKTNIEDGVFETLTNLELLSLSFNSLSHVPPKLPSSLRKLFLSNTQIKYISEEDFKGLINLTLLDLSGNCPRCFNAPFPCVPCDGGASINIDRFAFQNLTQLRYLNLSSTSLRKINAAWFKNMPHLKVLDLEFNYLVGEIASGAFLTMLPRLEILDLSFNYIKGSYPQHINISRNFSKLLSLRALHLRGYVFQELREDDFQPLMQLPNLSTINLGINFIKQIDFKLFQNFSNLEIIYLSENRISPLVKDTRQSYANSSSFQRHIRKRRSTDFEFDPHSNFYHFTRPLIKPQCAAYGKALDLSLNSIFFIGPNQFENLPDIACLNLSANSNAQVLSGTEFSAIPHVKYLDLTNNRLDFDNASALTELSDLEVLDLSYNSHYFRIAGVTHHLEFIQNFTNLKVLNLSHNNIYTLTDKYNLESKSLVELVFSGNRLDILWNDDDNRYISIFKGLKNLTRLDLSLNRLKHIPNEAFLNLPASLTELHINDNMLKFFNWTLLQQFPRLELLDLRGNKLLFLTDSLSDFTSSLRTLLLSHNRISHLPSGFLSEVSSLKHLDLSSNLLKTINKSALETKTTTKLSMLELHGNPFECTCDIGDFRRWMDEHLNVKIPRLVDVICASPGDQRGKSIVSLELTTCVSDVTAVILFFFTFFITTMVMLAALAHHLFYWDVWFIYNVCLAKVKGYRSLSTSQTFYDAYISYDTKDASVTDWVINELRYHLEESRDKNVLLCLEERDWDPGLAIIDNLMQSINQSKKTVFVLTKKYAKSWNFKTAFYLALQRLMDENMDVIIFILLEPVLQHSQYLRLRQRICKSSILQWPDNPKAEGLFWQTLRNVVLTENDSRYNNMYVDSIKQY
Protocol: (§1) 2) TLR Stimulation Assay:
(§2) Compounds are tested for stimulation of human TLR7 and TLR8, respectively, via reporter gene expression analyzed in a cell line stably transfected with human TLR7 and TLR8, respectively, and coexpressing an NFkB/AP-1 inducible SEAP reporter gene. Stimulation with a TLR ligand leads to NFkB/AP-1 activation and upregulation and secretion of SEAP, which can be measured in the supernatant with QuantiBlue™ detection system (InvivoGen).
Cell lines used were either HEK-Blue-hTLR7 (InvivoGen #hkb-htlr7) or HEK-Blue-hTLR8 (InvivoGen #hkb-htlr8). Cells were cultured following manufacturer's instructions. […]

human TLR7 = biological target: T2, human TLR7 (Homo sapiens, UniProt Q9NYK1); test: TLR7 reporter gene assay (HEK-Blue-hTLR7, NFkB/AP-1 inducible SEAP); details: for EC50: HEK-Blue-hTLR7
T2 construct: host or cells: HEK-Blue-hTLR7
T2 sequence (Q9NYK1 27-1049): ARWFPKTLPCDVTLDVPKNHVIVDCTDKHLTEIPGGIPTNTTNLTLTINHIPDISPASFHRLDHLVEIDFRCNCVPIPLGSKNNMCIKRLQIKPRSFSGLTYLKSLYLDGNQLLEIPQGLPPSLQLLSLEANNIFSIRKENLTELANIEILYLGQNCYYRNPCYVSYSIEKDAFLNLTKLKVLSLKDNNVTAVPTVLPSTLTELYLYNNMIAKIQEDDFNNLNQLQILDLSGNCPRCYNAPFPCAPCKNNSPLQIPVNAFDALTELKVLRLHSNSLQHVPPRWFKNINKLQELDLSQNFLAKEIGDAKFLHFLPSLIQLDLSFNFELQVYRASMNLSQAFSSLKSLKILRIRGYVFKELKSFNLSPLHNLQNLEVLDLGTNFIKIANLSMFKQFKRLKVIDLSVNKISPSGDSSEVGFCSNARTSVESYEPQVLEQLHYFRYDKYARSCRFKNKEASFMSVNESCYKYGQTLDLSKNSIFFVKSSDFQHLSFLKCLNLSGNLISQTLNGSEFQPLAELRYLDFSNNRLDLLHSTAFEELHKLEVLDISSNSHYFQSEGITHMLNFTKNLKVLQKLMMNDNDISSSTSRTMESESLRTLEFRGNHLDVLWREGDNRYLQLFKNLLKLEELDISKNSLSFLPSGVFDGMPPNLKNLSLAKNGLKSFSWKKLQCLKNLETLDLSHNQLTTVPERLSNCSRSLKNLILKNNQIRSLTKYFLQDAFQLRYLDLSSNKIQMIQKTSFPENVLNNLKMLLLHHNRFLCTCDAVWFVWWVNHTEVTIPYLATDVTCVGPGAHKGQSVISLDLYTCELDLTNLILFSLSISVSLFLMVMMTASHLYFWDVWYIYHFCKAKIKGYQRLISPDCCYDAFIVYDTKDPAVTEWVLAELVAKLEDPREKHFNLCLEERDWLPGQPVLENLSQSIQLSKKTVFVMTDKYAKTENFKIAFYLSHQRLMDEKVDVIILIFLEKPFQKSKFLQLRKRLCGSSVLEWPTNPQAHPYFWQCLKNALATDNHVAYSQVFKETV
Protocol: as §1, §2
Cell lines used were either HEK-Blue-hTLR7 (InvivoGen #hkb-htlr7) or HEK-Blue-hTLR8 (InvivoGen #hkb-htlr8). Cells were cultured following manufacturer's instructions.
Assay: • prepare cell suspensions of each cell line with Nv=0.11×10^6 cells/ml in medium (DMEM 4.5 g/l Glucose, 2-4 mM L-glutamine+10% FBS) without antibiotics (Nv=number of living cells) • add 180 μl of the suspensions per well of a 96 well flat bottom cell culture plates (coster, #3506) • incubate the plates overnight at 37° C. and 5% CO2 • prepare samples and controls as solutions in DMSO: R848, CL075 (TLR 7/8 agonist by InvivoGen) and Guardiquimod each to a final concentration of 10 μM, ODN2006 (InvivoGen) and ODN2216 (InvivoGen) each to a final concentration 2 μM; • compounds of the invention are applied in dilution series to final concentrations of 30, 10, 3, 1, etc. μM • add 20 μl diluted compounds and controls (see above) to the wells • incubate plates for 20-24 h at 37° C. and 5% CO2 • prepare QuantiBlue™ (InvivoGen #10H19-MM) solution, following manufacturer's instructions: solubilize the powder of one pouch in 100 ml MilliQ grade water, heat at 37° C. in a water bath for about 30 min, filter the solution with a paper filter • add 100 μl prepared QuantiBlue™ solution in each well of a 96 well plate with flat bottom • add […] cell culture supernatant from the induced cells per well • incubate plates for 1 to 1.5 h at 37° C. (until an intense blue color has developed) • read OD at 620 nm with a plate reader • calculate EC50 from data points

[1] = 24 h incubation, maximum of bell-shaped curve over 0.0003-1 μM, Table 1
[2] = comparative compounds with 2-methyltetrahydrofuran-3-yl at R3, Table 2

| SMILES | Maximum IFN-α release (Human PBMCs; [1]) [pg/mL] | Maximum IFN-α release (Human PBMCs; [2]) [pg/mL] | further results |
| --- | --- | --- | --- |
| CCc1nc2c(N)nc3ccccc3c2n1CCCCN(C(N)=O)C1CCOCC1 [Example 2, 1-(4-(4-Amino-2-ethyl-1H-imidazo[4,5-c]quinolin-1-yl)butyl)-1-(tetrabydro-2H-pyran-4-yl)urea] | 1250 |  |  |
| CCNCc1nc2c(N)nc3ccccc3c2n1CCCCN(C(C)=O)C1CCOCC1 [Example 3, N-(4-(4-Amino-2-((ethylamino)methyl)-1H-imidazo[4,5-c]quinolin-1-yl)butyl)-N-(tetrahydro-2H-pyran-4-yl)acetamide] | 1070 |  |  |
| CCc1nc2c(N)nc3ccccc3c2n1CCCCNC1CCOCC1 [example V, 2-ethyl-1-(4-((tetrahydro-2H-pyran-4-yl)amino)butyl)-1H-imidazo[4,5-c]quinolin-4-amine] |  |  | activity towards TLR8 in the TLR8 reporter gene assay (human TLR8): displayed activity; EC50 (human TLR7; highest concentration without any activity, read-out: activity towards TLR7 (no activity up to a concentration of)): > 30000 nM |
| COCCc1nc2c(N)nc3ccccc3c2n1CCCCN(C(C)=O)C1CCOCC1 [Example 5, N-(4-(4-Amino-2-(2-methoxyethyl)-1H-imidazo[4,5-c]quinolin-1-yl)butyl)-N-(tetrahydro-2H-pyran-4-yl)acetamide] | 880 |  |  |
| CCc1nc2c(N)nc3ccccc3c2n1CCCCN(C(C)=O)C1CCOC1C (centres unmarked) [example III, 3-{acetyl[4-(4-amino-2-ethyl-1H-imidazo[4,5-c]quinolin-1-yl)butyl]amino}-2,5-anhydro-1,3,4-trideoxypentitol] |  |  | maximum IFN-α release relative to present Example 1 (Human PBMCs; % of the maximum IFN-α release of Example 1): about 50%; EC50 (human TLR7; read-out: EC50 in the TLR7 reporter gene assay): 440 nM; EC50 in TLR7 reporter gene assay relative to Example 1 (human TLR7; fold higher EC50 than Example 1): ten-fold higher |
| COCCc1nc2c(N)nc3ccccc3c2n1CCCCN(C(C)=O)C1CCOC1C (centres unmarked) [5′] |  | 330 |  |
| CCNCc1nc2c(N)nc3ccccc3c2n1CCCCN(C(N)=O)C1CCOCC1 [Example 4, 1-(4-(4-Amino-2-((ethylamino)methyl)-1H-imidazo[4,5-c]quinolin-1-yl)butyl)-1-(tetrahydro-2H-pyran-4-yl)urea] | 920 |  |  |
| CCc1nc2c(N)nc3ccccc3c2n1CCCCN(C(C)=O)C1CCOC1C (centres unmarked) [1′] |  | 930 |  |
| COCCc1nc2c(N)nc3ccccc3c2n1CCCCN(C(N)=O)C1CCOCC1 [Example 6, 1-(4-(4-Amino-2-(2-methoxyethyl)-1H-imidazo[4,5-c]quinolin-1-yl)butyl)-1-(tetrahydro-2H-pyran-4-yl)urea] | 1850 |  |  |
| CCNCc1nc2c(N)nc3ccccc3c2n1CCCCN(C(C)=O)C1CCOC1C (centres unmarked) [3′] |  | 360 |  |
| CCNCc1nc2c(N)nc3ccccc3c2n1CCCCN(C(N)=O)C1CCOC1C (centres unmarked) [4′] |  | 290 |  |
